From article PMC9296983, “Synthesis and HDAC inhibitory activity of pyrimidine-based hydroxamic acids” (Beilstein Journal of Organic Chemistry, 2022)

Legend:
HDAC4 = biological target: T1, HDAC4 (Homo sapiens, UniProt P56524); experiment: HDAC enzyme activity assay (fluorogenic, Boc-Lys(trifluoroacetyl)-AMC substrate), HDAC4; format: biochemical; conditions: recombinant HDAC4; BOC-LYS-(TFA)-AMC as substrate, 100 mM TRIS, 300 mM KCl, pH 8.0 buffer, 30 °C
T1 construct: made in house
Protocol: (§1) Compounds 12–18 and 25–31 were tested as inhibitors of HDAC4 and HDAC8 isoforms according to the procedures described previously. […]. […]
(§2) HDAC enzyme activity assay
Recombinant HDAC4 and 8 were produced as described in [3]. Serial dilutions of the inhibitor in the assay buffer (25 mM Tris -HCl, pH 8.0, 75 mM KCl, 0.001 % Pluronic F-127) were incubated with HDAC in a black 96-well microtiter half -area plate (Greiner) for 60 min at 30 °C. Subsequentl y the reaction was started by the addition of 20 μM Boc -Lys(trifluoroacetyl) -AMC (Bachem) as a substrate.
(§3) After incubation for 60 min at 30 °C, the reaction was stopped by the addition of 1.7 μM SATFMK.
(§4) The deacetylated substrate was transformed into a flu orescent product by the addition of 0.4 mg/m L trypsin (Applichem). The release of AMC was followed in a microplate reader (PheraStar Plus, BMG Labtech) at 450 nm (λ Ex = 350 nm) and correlated to enzyme activity. Dose–response curves were produced with GraphPad Prism and fitted to a four parameters logistic function to obtain IC50 values […]
(§5) in which EA is the enzyme activity at a given inhibitor concentration x; Emax and E0 are the enzyme activities determined at zero and complete inhibition, respectively; IC50 represents the inhibitor concentration at which half the enzyme molecules are inhibited; h is the slope of the curve. […]
(§6) (1 picture or pasted object on this page, not shown here)

HDAC8 = biological target: T2, HDAC8 (Homo sapiens, UniProt Q9BY41); experiment: HDAC enzyme activity assay (fluorogenic, Boc-Lys(trifluoroacetyl)-AMC substrate), HDAC8; format: biochemical; conditions: recombinant HDAC8; BOC-LYS-(TFA)-AMC as substrate, 100 mM TRIS, 300 mM KCl, pH 8.0 buffer, 30 °C
T2 construct: made in house
T2 sequence (Q9BY41 1-377): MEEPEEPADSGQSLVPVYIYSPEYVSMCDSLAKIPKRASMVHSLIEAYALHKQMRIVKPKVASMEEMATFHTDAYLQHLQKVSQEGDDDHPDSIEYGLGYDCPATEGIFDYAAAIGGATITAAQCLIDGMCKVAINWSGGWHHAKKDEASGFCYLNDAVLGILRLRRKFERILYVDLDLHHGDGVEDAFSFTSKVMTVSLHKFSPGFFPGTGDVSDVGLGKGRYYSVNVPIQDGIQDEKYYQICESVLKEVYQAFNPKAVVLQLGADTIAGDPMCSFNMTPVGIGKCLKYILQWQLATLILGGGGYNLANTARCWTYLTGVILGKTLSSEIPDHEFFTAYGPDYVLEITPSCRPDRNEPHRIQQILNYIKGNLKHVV
Protocol: as §1, §2
Recombinant HDAC4 and 8 were produced as described in [3]. […]
HDAC in a black 96-well microtiter half -area plate (Greiner) for 60 min at 30 °C. Subsequentl y the reaction was started by the addition of 20 μM Boc -Lys(trifluoroacetyl) -AMC (Bachem) as a substrate.
as §3, §4, §5, §6

T1 sequence (P56524 whole entry, species assumed): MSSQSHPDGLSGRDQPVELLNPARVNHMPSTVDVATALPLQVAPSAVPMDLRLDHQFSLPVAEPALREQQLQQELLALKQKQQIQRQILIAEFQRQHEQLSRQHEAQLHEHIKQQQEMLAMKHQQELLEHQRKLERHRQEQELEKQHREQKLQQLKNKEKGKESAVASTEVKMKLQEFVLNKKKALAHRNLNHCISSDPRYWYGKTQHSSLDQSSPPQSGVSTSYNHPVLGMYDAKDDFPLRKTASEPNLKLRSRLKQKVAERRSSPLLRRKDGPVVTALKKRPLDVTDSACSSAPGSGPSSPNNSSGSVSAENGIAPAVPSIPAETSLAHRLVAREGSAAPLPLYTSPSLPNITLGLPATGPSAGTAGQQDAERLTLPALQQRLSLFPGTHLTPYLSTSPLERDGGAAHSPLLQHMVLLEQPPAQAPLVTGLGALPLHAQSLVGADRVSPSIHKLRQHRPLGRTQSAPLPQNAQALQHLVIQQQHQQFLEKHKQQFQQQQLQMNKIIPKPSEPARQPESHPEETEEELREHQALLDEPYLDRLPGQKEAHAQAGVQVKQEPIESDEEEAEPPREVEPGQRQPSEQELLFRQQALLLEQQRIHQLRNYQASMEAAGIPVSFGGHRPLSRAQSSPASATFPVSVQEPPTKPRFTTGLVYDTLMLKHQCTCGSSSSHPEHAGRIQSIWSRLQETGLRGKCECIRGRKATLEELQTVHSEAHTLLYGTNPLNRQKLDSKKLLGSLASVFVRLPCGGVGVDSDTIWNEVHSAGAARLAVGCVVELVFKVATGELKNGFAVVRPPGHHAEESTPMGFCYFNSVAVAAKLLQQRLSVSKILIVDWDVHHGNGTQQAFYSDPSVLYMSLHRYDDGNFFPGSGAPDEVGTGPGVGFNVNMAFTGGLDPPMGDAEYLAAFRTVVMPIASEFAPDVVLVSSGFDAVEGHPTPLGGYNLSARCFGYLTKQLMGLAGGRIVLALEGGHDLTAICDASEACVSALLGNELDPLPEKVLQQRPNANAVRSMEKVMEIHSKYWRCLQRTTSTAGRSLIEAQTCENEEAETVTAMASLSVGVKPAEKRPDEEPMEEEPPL

SMILES | IC50 (HDAC4) [µM] | IC50 (HDAC8) [µM] | melting point
CCCc1c(C)nc(SC)n(CC(=O)NO)c1=O [compound 30, N-Hydroxy-[6-methyl-2-(methylthio) -4-oxo-5-propylpyrimidin-3(4H)-yl]acetamide] | > 35 | > 35 | 185 to 187 °C
Cc1cc(OCC(=O)NO)nc(O)n1 [compound 18] | – | 60 | 190 to 191 °C (dec.)
CSc1nc(C)cc(OCCCC(=O)NO)n1 [compound 25] | > 50 | 5.65 | 150 to 151 °C
Cc1cc(OCC(=O)NO)nc(N2CCCC2)n1 [compound 17] | – | 13 | 178 to 180 °C
CCSc1nc(C)cc(OCC(=O)NO)n1 [compound 13] | – | 13 | 175 to 176 °C
CCCc1c(C)nc(SC)n(CCCC(=O)NO)c1=O [compound 31, N-Hydroxy-4-[6-methyl-2-(methylthio) -4-oxo-5-propylpyrimidin-3(4H)-yl]butanamide] | > 35 | > 35 | 133 to 135 °C
CCCc1c(C)nc(SC)nc1OCCCC(=O)NO [compound 28] | > 35 | 2.4 | 125 to 127 °C
CCCc1c(C)nc(SC)nc1OCC(=O)NO [compound 27] | 38 | 1.4 | 144 to 146 °C
Cc1cc(OCC(=O)NO)nc(NCc2ccccc2)n1 [compound 15] | – | 14 | 168 to 170 °C
CSc1nc(C)cc(OCC(=O)NO)n1 [compound 12] | 38 | 28 | 182 to 184 °C
Cc1cc(OCC(=O)NO)nc(N(C)C)n1 [compound 16] | – | 35 | 192 to 194 °C
CSc1nc(C)cc(OCCCCCC(=O)NO)n1 [compound 26] | > 50 | 2.05 | 112 to 113 °C
CCCc1c(C)nc(SC)nc1OCCCCCC(=O)NO [compound 29, N-hydroxy-6-[6-methyl-2-(methylthio)-5-propylpyrimidin-4-yloxy]hexanamide] | 16.6 | 1.2 | –
C=CCNc1nc(C)cc(OCC(=O)NO)n1 [compound 14] | – | 15 | 177 to 179 °C
